Experiments:
[1] = system: wounds made through the skin with a 6 mm dermal biopsy punch; test: In vivo skin punch assay; design: species or system Sprague-Dawley rats; settings: rats, 2.0 μg topically in normal saline, immediately after biopsy and each day for 3 days, FIG. 8
Experimental: Male Sprague-Dawley rats were anesthetized by intraperitoneal injection of sodium pentobarbital, their dorsal skin shaved, and wounds made through the skin with a 6 mm dermal biopsy punch. Immediately after the biopsy, and each subsequent day for 3 days, groups of rats received topically 2.0 μg of human PTH (1-34) in normal saline or human PTH (7-34) in normal saline; a control group received normal saline without peptide. Four rats from each group were killed by asphyxiation in a chamber of carbon dioxide, and the extent of wound healing was evaluated as follows. Wounds were photographed with the wound surface perpendicular to the axis of the lens. After development of the film, wound images were projected on to paper at a fixed distance, traced with a pencil, and cut out with sharp scissors. The relative sizes of the wounds were assessed by weighing the cut-out paper tracings. Percent healing was calculated from the average decrease in wound area for each group.

[2] = system: hair obtained from human subjects; test: In vitro hair growth assay; format: cell-based
Description: Candidate peptides may be screened for their ability to stimulate hair growth as follows. […] Hair is sampled from 4 sites of the scalp (frontal, occipital, temporal, and nuchal) and the following body areas: beard, axilla, pubic, chest, forearm, and leg, using the method described by van Scott et al. (J. Invest. Derm. 29: 197, 1957). Immediately after plucking, the hairs are placed in chilled Krebs-Ringer phosphate buffer, pH 7.4. Growing (anagen) and resting (telogen) hairs are differentiated either by gross examination or under low microscopic magnification. Generally, 2 to 4 anagen hairs and 10 to 30 telogen hairs are incubated in duplicate, in 2 ml. centrifuge tubes, in a total volume of 1 ml of incubation mixture consisting of Krebs-Ringer phosphate buffer, pH 7.4, glucose (9 mM), and candidate peptide; control incubation mixture lacks peptide. Samples are incubated with shaking at 37° C. in an air atmosphere. […]
DNA content is determined by the method of Kissane and Robins (J. Biol. Chem. 233: 184, 1958) as modified by Santoianni and Ayala (J. Invest. Derm. 45: 99, 1965). […] Fluorescence is asssayed on an Aminco-Bowman Spectrofluorometer with the excitation wavelength set at 396 nm and the emission wavelength at […]. […] Routinely, standards containing 0.1, 0.4, 0.8, 1.2, 1.6, and 3.2 μg of DNA, and a blank are read with the samples.

[3] = system: cultured human keratinocytes; test: Keratinocyte culture: counts of total cells, basal cells and cornified envelopes; format: cell-based
Experimental: Keratinocytes were grown in culture as follows. NIH 3T3 cells were plated at 0.5×10^5 cells per 35-mm tissue-culture dish, and two days later were lethally irradiated with a cobalt-60 source (5000 rads). Keratinocytes were obtained from neonatal foreskin after overnight trypsinization at 4° C. and treatment with 0.02% EDTA. Keratinocytes were plated in 2 ml of serum-free medium per dish on the lethally irradiated 3T3 cells. Each experiment was performed on primary or secondary keratinocyte cultures obtained from different skin samples.
In addition, 1,25-(OH)2 D3 was tested, alone and in combination with PTH (7-34), and PTH (1-34) and PTH (7-34) were tested together.
Beginning at one week in culture, groups of triplicate plates of keratinocytes were incubated with the aforementioned compounds or vehicle alone. After one week of dosing, the medium was removed from each culture and centrifuged, and the pellet was resuspended for the counting of the desquamated floater cells. A hemacytometer was used to count the different cell types under a phase-contrast microscope. The attached cells were then trypsinized for 30-40 min with 0.1 EDTA and 0.1% trypsin and then neutralized with medium. The keratinocytes were pelleted and resuspended in a known volume of medium. Duplicate aliquots were taken for counting the basal (small, rounded) and squamous (larger, irregular-shaped, flattened) cells. The remaining cells were pelleted and treated with 10 mM Tris-HCl (pH 7.4) with 1% beta-mercaptoethanol and 1% sodium dodecyl sulfate (SDS) at room temperature for 10 min. Only cells with cornified envelopes were present after this treatment.
Each culture was thus evaluated for its total cell content, number of basal cells, and cornified envelopes, as described above.

[4] = system: tumor cells (for example, HL-60, U937, and M-1); settings: tumor cells that possess a receptor for 1,25(OH)2 D3; cited from earlier work
[5] = system: cultured human fibroblasts; settings: cited from earlier work
[6] = system: cultured human keratinocytes; settings: cited from earlier work
psoriasis = settings: provided either orally or topically; cited from earlier work

Molecule | wound healing (percent healing from decrease in wound area) [1] | hair growth in vitro [2] | total number of cells and number of basal cells ([3]; 1,25(OH)2 D3 alone, one week of dosing, FIGS. 2-5) | total number of cornified envelopes, percent of control ([3]; compound alone, FIGS. 6 and 7) | differentiation of tumor cells [4] | proliferation of tumor cells [4] | proliferation of cultured human fibroblasts [5] | proliferation of cultured human keratinocytes [6] | terminal differentiation of keratinocytes [6] | value in the treatment of psoriasis (psoriasis)
human PTH (7-34): human PTH (7-34), applied topically in normal saline in the skin punch assay; stimulates hair growth in vitro (LMHNLGKHLNSMERVEWLRKKLQDVHNF; Parathyroid hormone; UniProt P01270 38-65, looked up, fragment) | enhance wound healing | stimulates hair growth |  |  |  |  |  |  |  | 
C=C1/C(=C\C=C2/CCC[C@]3(C)[C@@H]([C@H](C)CCCC(C)(C)O)CC[C@@H]23)C[C@@H](O)C[C@@H]1O [1,25(OH)2 D3, 1,25-dihydroxyvitamin D3] |  |  | decreased in a dose-dependent manner | increased, in a dose-dependent manner | induces them to differentiate | inhibits their proliferation | inhibits the proliferation | inhibits the proliferation | induces keratinocytes to terminally differentiate | of value in the treatment of psoriasis
